Data reported in US20190241569A1, “3-(ARYL OR HETEROARYL) METHYLENEINDOLIN-2-ONE DERIVATIVES AS INHIBITORS OF CANCER STEM CELL PATHWAY KINASES FOR THE TREATMENT OF CANCER” (Boston Biomedical, Inc., priority 2013, published 2019).
Structures can show the parent of a compound that is named as a salt.

What was measured:
human RIOK2 protein = biological target: T1, human RIOK2 protein (Homo sapiens, UniProt Q9BVS4); experiment: RIOK2 autophosphorylation ELISA (Test Example 4); type: biochemical; settings: for inhibition at 1 µM: read-out: Inhibitory activity at 1 μM (%); for inhibition at 10 µM: read-out: Inhibitory activity at 10 μM (%)
T1 construct: glutathione S-transferase is fused to N-terminal of a full-length human RIOK2 protein; GST (glutathione S-transferase) (N); purchased CarnaBio, Inc; host or cells: baculovirus-Sf21 cell expression system
T1 sequence (Q9BVS4 whole entry, the tested form may be a part): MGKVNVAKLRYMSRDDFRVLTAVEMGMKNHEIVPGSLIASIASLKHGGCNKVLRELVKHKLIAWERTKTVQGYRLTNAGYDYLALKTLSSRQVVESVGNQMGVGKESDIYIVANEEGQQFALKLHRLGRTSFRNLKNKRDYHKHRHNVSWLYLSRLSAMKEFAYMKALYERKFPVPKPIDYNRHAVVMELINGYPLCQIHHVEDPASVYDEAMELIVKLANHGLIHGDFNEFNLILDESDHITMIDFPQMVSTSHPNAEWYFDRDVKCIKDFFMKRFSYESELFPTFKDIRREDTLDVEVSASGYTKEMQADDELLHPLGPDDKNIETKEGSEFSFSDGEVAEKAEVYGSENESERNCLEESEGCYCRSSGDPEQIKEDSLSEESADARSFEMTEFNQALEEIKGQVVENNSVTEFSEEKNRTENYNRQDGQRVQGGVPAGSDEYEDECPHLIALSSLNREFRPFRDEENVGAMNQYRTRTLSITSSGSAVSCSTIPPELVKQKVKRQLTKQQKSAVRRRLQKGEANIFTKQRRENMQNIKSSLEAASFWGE
Experimental: A protein in which glutathione S-transferase is fused to N-terminal of a full-length human RIOK2 protein was used as a recombinant human RIOK2 protein. The protein was prepared using a baculovirus-Sf21 cell expression system from CarnaBio, Inc. A kinase reaction solution was prepared by mixing 25 μg/mL of the recombinant human RIOK2 protein and 100 μM of ATP in 20 μl of kinase reaction buffer (50 mM Tris-HCl, 10 mM MgCl2, 10 mM MnCl2, 1 mM DTT, 0.01% Brij, 1× PhosSTOP (manufactured by Roche Applied Science)), and was incubated at a temperature of 30° C. for 1 hour. After adding 30 μl of 40 mM EDTA solution to this kinase reaction solution, the kinase reaction solution was transferred to a MaxiSorp 96 well plate (manufactured by Nunc). Thereafter, phosphorylated human RIOK2 protein was allowed to adsorb onto the wells by leaving the plate in a refrigerator overnight.
The following day, the supernatant was removed, and the wells were washed three times with ELISA buffer (20 mM Tris-HCl, 150 mM NaCl, 0.2% Tween-20, 0.1% BSA). Thereafter, 100 μl of Blocking-One P (product name; manufactured by Nacalai Tesque, Inc.) was applied to the wells, and a blocking treatment was performed for 1 hour at room temperature. […] After further washing the wells, a secondary antibody, anti-rabbit IgG conjugated with horseradish peroxidase (manufactured by Jackson ImmunoResearch; 1/4000 ELISA buffer-diluted solution), was applied to the wells, and incubation was performed for 30 minutes at room temperature. After washing the wells once again, 50 μl of tetramethyl benzidine (TMB) aqueous solution (manufactured by Nacalai Tesque, Inc.) was applied to the wells, and a coloring reaction was performed for 30 minutes at room temperature. Thereafter, the coloring reaction was stopped by adding 50 μl of 2M H2SO4 to the wells. An absorptiometric level of 450 nm was measured in each well using ARVO SX (manufactured by Wallac).

ACHN = experiment: Bulk cancer cells, Cell Titer-Glo 72 hours (Test Example 2); type: cell-based; settings: Homo sapiens, ACHN, 72 h
Experimental: (§1) Tubes of 3× drug (60 uM in 500 uL complete media) were prepared from 5 mM stock solutions in DMSO. […] To treat cells, 50 uL of drug from the dilution plate was removed and added to the cell plates. […] Cells were harvested 72 hours after drug addition using Cell Titer-Glo (Promega) and luminescence measured on a plate reader.

FaDu = experiment: as above; type: cell-based; settings: Homo sapiens
Experimental: as §1

FaDu CSC = experiment: Cancer stem cells, Cell Titer-Glo 72 hours (Test Example 3); type: cell-based; settings: Homo sapiens, FaDu, 72 h
A549 = experiment: Bulk cancer cells, Cell Titer-Glo 72 hours (Test Example 2); type: cell-based; settings: Homo sapiens
Experimental: as §1

A549 CSC = experiment: Cancer stem cells, Cell Titer-Glo 72 hours (Test Example 3); type: cell-based; settings: Homo sapiens
ACHN CSC = experiment: as above; type: cell-based; settings: Homo sapiens, ACHN, 72 h

| SMILES | inhibition at 1 µM (human RIOK2 protein) [%] | inhibition at 10 µM (human RIOK2 protein) [%] | also measured |
| --- | --- | --- | --- |
| CCN(CC)CCNC(=O)c1c(C)[nH]c(/C=C2\C(=O)Nc3ccc(-c4ccnn4-c4cccc(OC)c4)cc32)c1C [Example 62] | 51 | 98 |  |
| CCN(CC)CCNC(=O)c1c(C)[nH]c(/C=C2\C(=O)Nc3ccc(-c4ccnn4-c4ccc(OC)cc4)cc32)c1C [Example 59] | 34 | 106 |  |
| CCN(CC)CCNC(=O)c1c(C)[nH]c(/C=C2\C(=O)Nc3ccc(-c4ccc(-c5ccccc5)s4)cc32)c1C [Example 1, (Z)-N-(2-(diethylamino)ethyl)-2,4-dimethyl-5-((2-oxo-5-(5-phenylthiophen-2-yl)indolin-3-ylidene)methyl)-1H-pyrrole-3-carboxamide] |  | 14 | IC50 (ACHN): 7.6 µM; IC50 (FaDu): 4.74 µM; IC50 (FaDu CSC): 1.2 µM |
| CCN(CC)CCNC(=O)c1c(C)[nH]c(/C=C2\C(=O)Nc3ccc(-c4ccnn4-c4cccc(C)c4)cc32)c1C [Example 61] | 29 | 137 |  |
| CCN(CC)CCNC(=O)c1c(C)[nH]c(/C=C2\C(=O)Nc3ccc(-c4ccnn4-c4ccc(C(F)(F)F)cc4)cc32)c1C [Example 60] | 9 | 68 |  |
| CCN(CC)CCNC(=O)c1c(C)[nH]c(/C=C2\C(=O)Nc3ccc(-c4ccnn4-c4ccccn4)cc32)c1C [Example 63] | 14 | 93 |  |
| CCN(CC)CCNC(=O)c1c(C)[nH]c(/C=C2\C(=O)Nc3ccc(-c4ccnn4-c4ccccc4F)cc32)c1C [Example 58] | 56 | 116 |  |
| CCN(CC)CCNC(=O)c1c(C)[nH]c(/C=C2\C(=O)Nc3ccc(-c4ccnn4-c4ccc(F)cc4)cc32)c1C [Example 57] | 39 | 104 |  |
| Cc1[nH]c(/C=C2\C(=O)Nc3ccc(-c4ccc(-c5ccccc5)s4)cc32)c(C)c1C(=O)N1CCN(C)CC1 [Example 3] |  | 65 | IC50 (FaDu): 25.4 µM; IC50 (FaDu CSC): 1.16 µM |
| CCN(CC)CCNC(=O)c1c(C)[nH]c(/C=C2\C(=O)Nc3ccc(-c4ccnn4-c4ccc(Cl)c(Cl)c4)cc32)c1C [Example 65] | 18 | 87 |  |
| CCN(CC)CCNC(=O)c1c(C)[nH]c(/C=C2\C(=O)Nc3ccc(-c4ccnn4-c4ccncc4)cc32)c1C [Example 66] | -6 | 44 |  |
| CCN(CC)CCNC(=O)c1c(C)[nH]c(/C=C2\C(=O)Nc3cc(-c4csc(-n5cccn5)n4)ccc32)c1C [Example 254] |  |  | IC50 (A549): 5.8 µM; IC50 (ACHN): 2.6 µM; IC50 (FaDu): 5.3 µM; IC50 (FaDu CSC): 0.78 µM; IC50 (A549 CSC): 2.93 µM; IC50 (ACHN CSC): 0.17 µM |
| COC(=O)c1c(C)[nH]c(/C=C2\C(=O)Nc3ccc(-c4csc(-c5ccncc5)n4)cc32)c1C [Example 145] |  |  | IC50 (A549): 9.61 µM; IC50 (ACHN): 12.6 µM; IC50 (FaDu): 18.6 µM; IC50 (FaDu CSC): 6.74 µM; IC50 (A549 CSC): 4.8 µM; IC50 (ACHN CSC): 6.16 µM |
| CCN(CC)CCNC(=O)c1c(C)[nH]c(/C=C2\C(=O)Nc3ccc(-c4cnsc4)cc32)c1C [Example 200] |  |  | IC50 (A549): 3.79 µM; IC50 (ACHN): 4.58 µM; IC50 (FaDu): 3.17 µM; IC50 (FaDu CSC): 3.42 µM; IC50 (A549 CSC): 6.66 µM; IC50 (ACHN CSC): 0.64 µM |
| CCN(CC)CCNC(=O)c1c(C)[nH]c(/C=C2\C(=O)Nc3cc(-c4cccc5ncccc45)ccc32)c1C [Example 258] |  |  | IC50 (A549): 2.88 µM; IC50 (ACHN): 2.66 µM; IC50 (FaDu): 4.83 µM; IC50 (FaDu CSC): 2.64 µM; IC50 (A549 CSC): 8.61 µM; IC50 (ACHN CSC): 0.42 µM |

More lines, main results first:

| inhibition at 1 µM (human RIOK2 protein) [%] | inhibition at 10 µM (human RIOK2 protein) [%] | SMILES | also measured |
| --- | --- | --- | --- |
| -13 | 69 | Cc1[nH]c(/C=C2\C(=O)Nc3ccc(-c4cnn(-c5ccccc5)c4)cc32)c(C)c1C(=O)NC1CNCC(c2ccccc2)C1 (stereo not drawn) [Example 96] |  |
| 20 | 96 | CCN(CC)CCCNC(=O)c1c(C)[nH]c(/C=C2\C(=O)Nc3ccc(-c4cnn(-c5ccccc5)c4)cc32)c1C [Example 90] |  |
| 17 | 140 | Cc1[nH]c(/C=C2\C(=O)Nc3ccc(-c4cnn(-c5ccccc5)c4)cc32)c(C)c1C(=O)NC1CCNCC1 [Example 94] |  |
| 41 | 99 | CCN(CC)CCNC(=O)c1c(C)[nH]c(/C=C2\C(=O)Nc3ccc(-c4cnn(-c5cscn5)c4)cc32)c1C [Example 72] |  |
| 9 | 126 | Cc1[nH]c(/C=C2\C(=O)Nc3ccc(-c4cnn(-c5ccccc5)c4)cc32)c(C)c1C(=O)NC[C@H]1CCCN1 [Example 100] |  |
| -2 | 25 | Cc1[nH]c(/C=C2\C(=O)Nc3ccc(-c4cnn(-c5ccccc5)c4)cc32)c(C)c1C(=O)NCCc1ncc[nH]1 [Example 98] |  |
| 4 | 99 | CCN(CC)CCNC(=O)c1c(C)[nH]c(/C=C2\C(=O)Nc3ccc(-c4cnn(-c5ccccc5Cl)c4)cc32)c1C [Example 71] |  |
| 47 | 95 | CCN(CC)CCNC(=O)c1c(C)[nH]c(/C=C2\C(=O)Nc3ccc(-c4cnn(-c5cnccn5)c4)cc32)c1C [Example 68] |  |
| 6 | 107 | Cc1[nH]c(/C=C2\C(=O)Nc3ccc(-c4cnn(-c5ccccc5)c4)cc32)c(C)c1C(=O)NC1(CN2CCCCC2)CC1 [Example 97] |  |
| 40 | 109 | CCN(CC)CCNC(=O)c1c(C)[nH]c(/C=C2\C(=O)Nc3ccc(-c4cnn(-c5ccncn5)c4)cc32)c1C [Example 69] |  |
| 26 | 71 | CCN(CC)CCNC(=O)c1c(C)[nH]c(/C=C2\C(=O)Nc3ccc(-c4cnn(-c5ccc(S(N)(=O)=O)cc5)c4)cc32)c1C [Example 74] |  |
| 18 | 111 | CCN(CC)CCNC(=O)c1c(C)[nH]c(/C=C2\C(=O)Nc3ccc(-c4cnn(-c5nccs5)c4)cc32)c1C [Example 73] |  |
| 42 | 112 | CCN(CC)CCNC(=O)c1c(C)[nH]c(/C=C2\C(=O)Nc3ccc(-c4cnn(-c5ncccn5)c4)cc32)c1C [Example 70] |  |
| 1.4 | 122 | Cc1[nH]c(/C=C2\C(=O)Nc3ccc(-c4cnn(-c5ccccc5)c4)cc32)c(C)c1C(=O)N[C@H]1CCCNC1 [Example 88, (S,Z)-2,4-dimethyl-5-((2-oxo-5-(1-phenyl-1H-pyrazol-4-yl)indolin-3-ylidene)methyl)-N-(piperidin-3-yl)-1H-pyrrole-3-carboxamide hydrochloride] |  |
| 22 | 134 | Cc1[nH]c(/C=C2\C(=O)Nc3ccc(-c4cnn(-c5ccccc5)c4)cc32)c(C)c1C(=O)NC1[C@H]2CNC[C@@H]12 (stereo partly drawn) [Example 95] |  |
| 3 | 113 | CCN(CC)CCN(C)C(=O)c1c(C)[nH]c(/C=C2\C(=O)Nc3ccc(-c4cnn(-c5ccccc5)c4)cc32)c1C [Example 92] |  |
| -7 | 43 | CCOCCCNC(=O)c1c(C)[nH]c(/C=C2\C(=O)Nc3ccc(-c4cnn(-c5ccccc5)c4)cc32)c1C [Example 91] |  |
| 42 | 82 | CCN(CC)CCNC(=O)c1c(C)[nH]c(/C=C2\C(=O)Nc3ccc(-c4cnn(-c5cccnc5)c4)cc32)c1C [Example 79] |  |
| -11 | 79 | Cc1[nH]c(/C=C2\C(=O)Nc3ccc(-c4cnn(-c5ccccc5)c4)cc32)c(C)c1C(=O)NCc1nc2ccccc2[nH]1 [Example 99] |  |
| 7 | 65 | Cc1[nH]c(/C=C2\C(=O)Nc3ccc(-c4cnn(-c5ccccc5)c4)cc32)c(C)c1C(=O)NCC1(N)CCCC1 [Example 93] |  |
| 13 | 94 | Cc1[nH]c(/C=C2\C(=O)Nc3ccc(-c4cnn(-c5ccccc5)c4)cc32)c(C)c1C(=O)NC[C@@H]1CCCN1 [Example 101] |  |
| 22 | 130 | Cc1[nH]c(/C=C2\C(=O)Nc3ccc(-c4cnn(-c5ccccc5)c4)cc32)c(C)c1C(=O)N[C@@H]1CCCNC1 [Example 89] |  |
